Drawing on article PMC10414762, “Gene amplifications cause high-level resistance against albicidin in gram-negative bacteria” (PLOS Biology, 2023), this text covers Kd for 1 molecule.

For the experiment, the target named is T1, STM3175 (YgiV) (Salmonella enterica, UniProt Q8ZM00).
T1 construct: full-length STM3175 (288 aa)
In words: tryptophan fluorescence quenching titration. In kind it is binding. An excerpt:
tryptophan fluorescence quenching titration on STM3175 (YgiV) | Fluorescence quenching of STM3175 plotted as a function of increasing azahistidine albicidin concentration.

T1 sequence (Q8ZM00 whole entry): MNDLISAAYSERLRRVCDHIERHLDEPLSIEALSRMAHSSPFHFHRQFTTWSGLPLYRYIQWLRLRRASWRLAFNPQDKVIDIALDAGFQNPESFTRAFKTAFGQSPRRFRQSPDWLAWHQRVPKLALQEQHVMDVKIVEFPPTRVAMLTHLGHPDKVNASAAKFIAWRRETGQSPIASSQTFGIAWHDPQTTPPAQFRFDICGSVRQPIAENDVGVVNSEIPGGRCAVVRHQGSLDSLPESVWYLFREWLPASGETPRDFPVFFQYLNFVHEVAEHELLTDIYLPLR

Broadly, the Kd is the equilibrium constant for the complex coming apart. The low end stands for a tighter complex, the high end for a looser complex. As to `COc1c(NC(=O)c2ccc(NC(=O)c3ccc(NC(=O)[C@H](Cc4c[nH]nn4)NC(=O)c4ccc(NC(=O)/C(C)=C/c5ccc(O)cc5)cc4)cc3)c(OC)c2O)ccc(C(=O)O)c1O` [azahistidine albicidin], binding was put at a Kd of 170 ± 10 nM.
